Assay results as given in patent US7989446B2, “4-amino 5-cyanopyrimidine derivatives” (Otsuka Pharmaceutical Co., Ltd., priority 2004, dated 2011).
Counter-ions that a name gives are not always drawn.

Legend:
[1] = molecular target: T1, adenosine A2a receptor (Human) (Homo sapiens, UniProt P29274); test: c-AMP generating action in cell expressing adenosine A2a receptor; format: cell-based; conditions: HEK293 cell expressing human A2a; 100% = c-AMP caused by 1 μM CGS-21680; read-out: A2a Agonistic Action (EC50)
T1 construct: host or cells: HEK293
Experimental: (1) c-AMP Generating Action in Cell Expressing Adenosine A2a Receptor
The test was carried out as mentioned below with reference to the method disclosed in the reference (Klotz k. N. et al., Naunyn-Schmiedeberg's Arch. Pharmacol., (1998) 357, 1-9; Shryock J. C. et al., Molecular Pharmacology, (1998) 53, 886-893).
As to the cell, HEK293 cell expressing adenosine A2a receptor (Human) (PerkinElmer Life Sciences, Code No. RBHA2AC) was used.
As to the culture medium, Dulbecco's modified Eagles medium (DMEM) including 10% FBS (Fetal bovine serum) and 1 mM of sodium pyruvate was used.
The cell was placed on 96 well plate (1×10^5/well), and cultured overnight. After removing off the supernatant, to each well, 0.1 ml of DMEM (without FBS) containing 20 mM HEPES, 0.1 mM of IBMX (3-isobutyl-1-methylxanthine) and 2 unit/mL adenosine deaminase was added, and they were incubated at 37° C. for 30 minutes. To each well, 0.1 ml of the culture medium including the DMSO solution of the test compound in an appropriate concentration was added and they were incubated for additional 30 minutes. After removing off the supernatant, the cytolytic solution was added to quench the reaction. The amount of c-AMP in each well was measured by using the c-AMP enzyme immunoassay (EIA) system (Amersham Biosciences, Code No. RPN225).
The same assay was repeated using CGS-21680 (2-p-carboxyethyl)phenethylamino-5′-N-ethylcarboxamidoadenosine hydrochloride, (Sigma, code C141) as reference compound. The amount of resultant c-AMP in the medium, caused by 1 μM of reference compound, was defined to be 100%. A concentration of assayed compound in the medium, producing 50% c-AMP amounts, was calculated to be EC50 value.

[2] = tested on: Intraocular Pressure in Rabbit; test: Measuring test for intraocular pressure in rabbit; format: in vivo, Female New Zealand white rabbits; conditions: test group, mean±standard error
Experimental: (3) Measuring Test for Intraocular Pressure in Rabbit
The test compounds were dissolved in 10 mM of phosphate buffer (pH 7.5) (hereinafter, referred to as “vehicle of ophthalmic preparation”), and they were instilled in a given concentration. In addition, the compounds insoluble in that concentration was used as a suspension. Female New Zealand white rabbits (KITAYAMA LABES Co., Ltd.) whose weights were 2.0-4.0 kg were used.
The measurement of the intraocular pressure was carried out using Pneumatonometer (Model 30 Classic, Mentor company) without anesthesia. In addition, before the measurement of the intraocular pressure, the surface anesthesia with 0.4% oxybuprocaine hydrochloride (“Benoxil” 0.4% ophthalmic solution, Santen Pharmaceutical Co., Ltd.) was carried out.
The animals whose intraocular pressure was stable before instillation were selected, and these animals were divided to every 4 animal in each one group, 50 μL of eye drops including each the test compound was administered to one-sided eye and vehicle was administered to contralateral eye as the control eye. The measurement of intraocular pressure was carried out before instillation and after 0.5, 1, 2, 3, 4 and 6 hours from instillation. The effect on the intraocular pressure was shown as the difference from pre-instillation (ΔIOP, mmHg, mean±standard error). The following Tables 14 and 15 show the results of Control Compounds A and B used as 1% suspensions which are the same as in the pharmacological test (1).
The animals were pretreated as mentioned above, and among them animals whose intraocular pressure was stable before instillation were selected, and these animals were divided to every 5 to 8 animal in each one group. Every two group was used for each of the test compounds. The test compound was administered unilaterally to the eye of the test group rabbit and the intraocular pressure was measured. The vehicle was administered unilaterally to the eye of the control group rabbit and the intraocular pressure was measured. As mentioned above, the measurement of intraocular pressure was carried out before instillation and after 0.5, 1, 2, 3, 4 and 6 hours from instillation, and the effect on the intraocular pressure was shown as the difference from pre-instillation (ΔIOP, mmHg, mean±standard error).

T1 sequence (P29274 whole entry): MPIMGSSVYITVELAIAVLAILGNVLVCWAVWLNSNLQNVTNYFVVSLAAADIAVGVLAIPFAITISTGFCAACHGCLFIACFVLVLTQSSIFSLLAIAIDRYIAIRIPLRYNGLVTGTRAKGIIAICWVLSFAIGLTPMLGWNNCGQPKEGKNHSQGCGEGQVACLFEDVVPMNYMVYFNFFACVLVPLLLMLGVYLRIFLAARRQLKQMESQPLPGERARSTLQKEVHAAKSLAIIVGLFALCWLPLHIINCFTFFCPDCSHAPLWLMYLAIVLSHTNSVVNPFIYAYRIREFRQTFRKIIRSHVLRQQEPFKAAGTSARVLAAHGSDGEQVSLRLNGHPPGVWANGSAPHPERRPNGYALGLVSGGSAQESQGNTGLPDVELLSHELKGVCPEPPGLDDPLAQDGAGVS

Structure (SMILES) | EC50 [1] | also measured
CC(=O)Nc1ccc(-c2nc(SCc3cccc(C)n3)nc(N)c2C#N)cc1 [Example 2, N-{4-[6-amino-5-cyano-2-(6-methylpyridin-2-ylmethylsulfanyl)pyrimidin-4-yl]phenyl}acetamide] | 11.9 nM | ΔIOP (mmHg) ([2]; 1% suspended ophthalmic preparation, 0.5 hr): 1.1 ± 0.6 mmHg; ΔIOP (mmHg) ([2]; 1% suspended ophthalmic preparation, 1 hr): −3.1 ± 0.6 mmHg; ΔIOP (mmHg) ([2]; 1% suspended ophthalmic preparation, 2 hr): −4.2 ± 0.7 mmHg; ΔIOP (mmHg) ([2]; 1% suspended ophthalmic preparation, 3 hr): −4.0 ± 0.9 mmHg; ΔIOP (mmHg) ([2]; 1% suspended ophthalmic preparation, 4 hr): −2.0 ± 0.4 mmHg; ΔIOP (mmHg) ([2]; 1% suspended ophthalmic preparation, 6 hr): 0.4 ± 0.9 mmHg
CC(=O)Nc1ccc(-c2nc(SCc3cccc(CN4CCOCC4)n3)nc(N)c2C#N)cc1 [Example 14, N-{4-[6-amino-5-cyano-2-(6-morpholin-4-ylmethylpyridin-2-ylmethylsulfanyl)pyrimidin-4-yl]phenyl}acetamide] | 39.6 nM | ΔIOP (mmHg) ([2]; 0.3% suspended ophthalmic preparation, 0.5 hr): −0.3 ± 1.2 mmHg; ΔIOP (mmHg) ([2]; 0.3% suspended ophthalmic preparation, 1 hr): −3.9 ± 1.3 mmHg; ΔIOP (mmHg) ([2]; 0.3% suspended ophthalmic preparation, 2 hr): −4.4 ± 1.0 mmHg; ΔIOP (mmHg) ([2]; 0.3% suspended ophthalmic preparation, 3 hr): −4.8 ± 1.4 mmHg; ΔIOP (mmHg) ([2]; 0.3% suspended ophthalmic preparation, 4 hr): −4.3 ± 1.0 mmHg; ΔIOP (mmHg) ([2]; 0.3% suspended ophthalmic preparation, 6 hr): −1.0 ± 1.0 mmHg
CC(=O)Nc1ccc(-c2nc(SCc3cccc(C(=O)N4CCN(C(=O)OC(C)(C)C)CC4)n3)nc(N)c2C#N)cc1 [Example 28, t-butyl 4-{6-[4-(4-acetylaminophenyl)-6-amino-5-cyanopyrimidin-2-ylsulfanyl-methyl]pyridine-2-carbonyl}piperazine-1-carboxylate] | 8.2 nM | 
CC(=O)Nc1ccc(-c2nc(SCc3cccc(CNC(=O)CCCN4CCCC4)n3)nc(N)c2C#N)cc1 [Example 33, N-{6-[4-(4-acetylaminophenyl)-6-amino-5-cyanopyrimidin-2-ylsulfanylmethyl]pyridin-2-ylmethyl}-4-pyrrolidin-1-ylbutyl-amide] | 48 nM | 
CCCS(=O)(=O)N(C)Cc1cccc(CSc2nc(N)c(C#N)c(-c3ccc(NC(C)=O)cc3)n2)n1 [Example 41, N-{4-[6-amino-5-cyano-2-(6-{[methyl(propan-1-sulfonyl)amino]methyl}-pyridin-2-ylmethylsulfanyl)pyrimidin-4-yl]phenyl}acetamide] | 23 nM | 
CC(=O)Nc1ccc(-c2nc(SCc3cccc(CCC(=O)OC(C)(C)C)n3)nc(N)c2C#N)cc1 [Example 42, t-butyl 3-{6-[4-(4-acetylaminophenyl)-6-amino-5-cyanopyrimidin-2-ylsulfanyl-methyl]pyridin-2-yl}propionate] | 10 nM | 
CC(=O)Nc1ccc(-c2nc(SCc3cccc(C=CC(=O)N4CCN(C)CC4)n3)nc(N)c2C#N)cc1 [Example 48, N-[4-(6-amino-5-cyano-2-{6-[3-(4-methylpiperazin-1-yl)-3-oxopropenyl]pyridin-2-ylmethylsulfanyl}pyrimidin-4-yl)-phenyl]acetamide] | 29.1 nM | 
CC(=O)Nc1ccc(-c2nc(SCc3cccc(C#CCCC(=O)N4CCN(C)CC4)n3)nc(N)c2C#N)cc1 [Example 52, N-[4-(6-amino-5-cyano-2-{6-[5-(4-methylpiperazin-1-yl)-5-oxopent-1-ynyl]pyridin-2-ylmethylsulfanyl}pyrimidin-4-yl)phenyl]acetamide] | 7 nM | 
CC(=O)Nc1ccc(-c2nc(SCc3cccc(CCCCC(=O)N4CCN(C)CC4)n3)nc(N)c2C#N)cc1 [Example 54, N-[4-(6-amino-5-cyano-2-{6-[5-(4-methylpiperazin-1-yl)-5-oxopentyl]pyridin-2-ylmethyl-sulfanyl}pyrimidin-4-yl)phenyl]acetamide] | 5.3 nM | 
CCN(CC)CCN1CCN(C(=O)CCCCc2cccc(CSc3nc(N)c(C#N)c(-c4ccc(NC(C)=O)cc4)n3)n2)CC1 [Example 55, N-{4-[6-amino-5-cyano-2-(6-{5-[4-(2-diethylaminoethyl)piperazin-1-yl]-5-oxopentyl}pyridin-2-ylmethylsulfanyl)pyrimidin-4-yl]phenyl}acetamide hydrochloride] | 5.5 nM | 
CN1CCN(C(=O)CCc2cccc(CSc3nc(N)c(C#N)c(-c4ccc(N)cc4)n3)n2)CC1 [Example 56, 4-amino-6-(4-aminophenyl)-2-{6-[3-(4-methylpiperazin-1-yl)-3-oxopropyl]-pyridin-2-ylmethylsulfanyl}pyrimidin-5-carbonitrile] | 5.1 nM | 
CCC(=O)Nc1ccc(-c2nc(SCc3cccc(CCC(=O)N4CCN(C)CC4)n3)nc(N)c2C#N)cc1 [Example 57, N-[4-(6-amino-5-cyano-2-{6-[3-(4-methylpiperazin-1-yl)-3-oxopropyl]pyridin-2-ylmethylsulfanyl}pyrimidin-4-yl)phenyl]propionamide] | 3.4 nM | 
CCCC(=O)Nc1ccc(-c2nc(SCc3cccc(CCC(=O)N4CCN(C)CC4)n3)nc(N)c2C#N)cc1 [Example 58, N-[4-(6-amino-5-cyano-2-{6-[3-(4-methylpiperazin-1-yl)-3-oxopropyl]pyridin-2-ylmethylsulfanyl}pyrimidin-4-yl)phenyl]-butylamide] | 38 nM | 
CC(=O)Nc1ccc(-c2nc(SCc3cccc(CCC(=O)NCCN)n3)nc(N)c2C#N)cc1 [Example 60, 3-{6-[4-(4-acetylaminophenyl)-6-amino-5-cyanopyrimidin-2-ylsulfanylmethyl]pyridin-2-yl}-N-(2-aminoethyl)propionamide hydrochloride] | 2.8 nM | 
CCN(CC)C1CCN(C(=O)CCc2cccc(CSc3nc(N)c(C#N)c(-c4ccc(NC(C)=O)cc4)n3)n2)CC1 [Example 68, N-[4-(6-amino-5-cyano-2-{6-[3-(4-diethylaminopiperidin-1-yl)-3-oxopropyl]pyridin-2-yl-methylsulfanyl}pyrimidin-4-yl)phenyl]acetamide hydrochloride salt] | 7.5 nM | 
CC(=O)Nc1ccc(-c2nc(SCc3cccc(CCC(=O)N4CCCCC4CO)n3)nc(N)c2C#N)cc1 (stereo not drawn) [Example 70, N-[4-(6-amino-5-cyano-2-{6-[3-(2-hydroxymethylpiperidin-1-yl)-3-oxopropyl]pyridin-2-ylmethylsulfanyl}pyrimidin-4-yl)phenyl]acetamide hydrochloride] | 8.8 nM | 
CC(=O)Nc1ccc(-c2nc(SCc3cccc(CCC(=O)N4CCNCC4)n3)nc(N)c2C#N)cc1 [Example 74, N-(4-{6-amino-5-cyano-2-[6-(3-oxo-3-piperazin-1-ylpropyl)pyridin-2-ylmethylsulfanyl]-pyrimidin-4-yl}phenyl)acetamide hydrochloride] | 2.5 nM | 
CCC(=O)CCc1cccc(CSc2nc(N)c(C#N)c(-c3ccc(NC(C)=O)cc3)n2)n1 [Example 82, N-(4-{6-amino-5-cyano-2-[6-(3-oxopentyl)pyridin-2-ylmethylsulfanyl]pyrimidin-4-yl}phenyl)acetamide] | 8.2 nM | 
